Results as given in patent US20260256863A1, “COMPOSITION, COMPRISING CINNAMOMUM CASSIA EXTRACT HAVING INNOVATIVE CKD EXTRACTION TECHNOLOGY (ICET) TECHNOLOGY APPLIED THERETO, FOR PREVENTING, ALLEVIATING, OR TREATING GASTRITIS OR PEPTIC ULCER” (CHONG KUN DANG PHARMACEUTICAL CORP., priority 2022, published 2026).

System: acute or chronic gastritis patients with one or more erosions
Test: Clinical trial in acute or chronic gastritis patients (gastroscopy, Example 3)
Type: in vivo, human
Settings: 300 mg, 2 weeks, N=42
Protocol: The Cinnamomum cassia extract of the Preparation Example 1 according to the present disclosure, placebo, and active control drug were administered to acute and chronic gastritis patients to compare and evaluate the effectiveness and safety of Cinnamomum cassia extract according to the present disclosure in a searching manner and to determine an appropriate dose. Specifically, acute or chronic gastritis patients with one or more erosions identified in a gastroscopy performed within 7 days from the start date of administration of investigational medical product were divided into the following test groups and administered for 2 weeks. • Test group I (group administered with 225 mg of Cinnamomum cassia extract according to the present disclosure) • Test group II (group administered with 450 mg of Cinnamomum cassia extract according to the present disclosure) • Control group I (group administered with placebo) • Control group II (group administered with 180 mg of ethanol soft ext. (20->1) of 95% artemisia) • Control group III (group administered with 300 mg rebamipide) • (1) Effective rate on gastroscopy: The proportion of test subjects whose erosion score on gastroscopy reduced by more than 50% after 2 weeks of administration (visit 3) compared to baseline (visit 1) was calculated according to the following Equation 1, and evaluated according to the criteria in Table 3. [table] • (1) Complete cure rate on gastroscopy: The proportion of test subjects who were completely cured to normal on gastroscopy (0 erosions: erosion score 1 point) after 2 weeks of administration (visit 3) compared to baseline (visit 1) was calculated and evaluated according to the following Equation 2.

## O=C(NC(Cc1cc(=O)[nH]c2ccccc12)C(=O)O)c1ccc(Cl)cc1 (stereo not shown) [rebamipide]
  Complete cure rate on gastroscopy: 40.48%
  Effective example people (complete cure rate on gastroscopy): 17 people
  Effective example people (effective rate on gastroscopy): 20 people
  Effective rate on gastroscopy: 47.62%
